The values that follow come from US20090298814A1, “Novel salts of conjugated psychotropic drugs and processes of preparing same” (RAMOT AT TEL AVIV UNIVERISTY LTD, priority 2005, published 2009).

Holding throughout (format): physicochemical
Data set [1] is described as follows: Stability of AN-197 in dichloromethane, acetonitrile or ethyl acetate heated to 40° C. overnight. The note with it: dissolved in dichloromethane. The protocol:
To evaluate the stability of AN-197 under conditions of a large scale production, characterized by longer procedure times, samples of AN-197, prepared according to the procedure described in Example 4 above (Route B) above, dissolved in dichloromethane, acetonitrile or ethyl acetate were heated to 40° C. overnight. […] It was therefore concluded that AN-197 is stable under such conditions.

A short description of data set [2]: Stability of AN-197 by daily HPLC over 24 days, mobile phase solution vs neat oil. The settings on record: 20° C. The protocol:
HPLC analyses were performed on a Water 2695 Separations Module, using a Luna C18 (2) 50 mm×4.6 mm×3 um column, a 5 μl injection volume and a 2487 dual wavelength detector under the following instrumental conditions: Mobile phase A: 0.1% formic acid; Mobile phase B: acetonitrile; Flow rate: 0.5 ml per minute; Mobile phase gradient: 0.0 minutes 90% A, 10% B, 14.0 minutes 20% A, 80% B, 15.0 minutes 90% A, 10% B and 20.0 minutes 90% A, 10% B; Run time: 20 minutes; Detection: UV at 254 nm; Column temperature: 40° C.
The stability of AN-197 was determined by performing an HPLC analysis daily during a period of 24 days and determining the appearance of perphenazine and GABA, the degradation products of AN-197. A sample of AN-197, prepared according to the procedure described above in Example 4 (Route B), was dissolved in the mobile phase solution used in the HPLC analysis (2:1 acetonitrile:water, pH=8) and was kept at 20° C. For comparison, a sample of neat AN-197 was kept under the same conditions and was similarly analyzed.

A short description of data set [3]: Stability of AN-197 under acidic conditions (citric acid solution). The note with it: in ethyl acetate, stirred in citric acid solution overnight. As to the method:
To evaluate the stability of AN-197 under acidic conditions, a sample of AN-197, prepared according to the procedure described in Example 4 (Route B) above, was dissolved in ethyl acetate and stirred in a citric acid solution overnight.

As for `CC(C)(C)OC(=O)NCCCC(=O)OCCN1CCN(CCCN2c3ccccc3Sc3ccc(Cl)cc32)CC1` [AN-197, Perphenazine N-Boc-4-aminobutyrate], the degradation entry in data set [1] is given as “no degradation had occurred”. The “perphenazine content (HPLC)” value in data set [2] (AN-197 solution in HPLC mobile phase (2:1 acetonitrile:water, pH=8), after 24 days) was 7.98%; in data set [2] (AN-197 solution in HPLC mobile phase (2:1 acetonitrile:water, pH=8), initial) it was 0.42%; in data set [2] (neat oil, after 24 days) it was 0.79%; in data set [2] (neat oil, initial) it was 0.42%. In data set [3], the “hydrolysis of the product” value is “no hydrolysis”.
